Measurements published in PubChem BioAssay (NCI).
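Each compound was tested at five concentrations against cells in 96-well plates for 48 hours. GI50 marks 50% less growth. TGI denotes the concentration required for complete inhibition of growth.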

What was measured:
Assay in all cases: inhibition of tumour cell growth, NCI panel, 48 h
[1] = tested on: HCT-116 colon
[2] = tested on: CAKI-1 renal
[3] = tested on: UACC-62 melanoma
[4] = tested on: IGROV1 ovarian
[5] = tested on: SK-MEL-2 melanoma
[6] = tested on: UACC-257 melanoma
[7] = tested on: A549 NSCLC
[8] = tested on: NCI-H460 lung
[9] = tested on: ACHN renal
[10] = tested on: SF-295 CNS
[11] = tested on: HT29 colon
[12] = tested on: SW-620 colon
[13] = tested on: K-562 leukemia
[14] = tested on: UO-31 renal
[15] = tested on: T-47D breast
[16] = tested on: NCI-H522 lung
[17] = tested on: KM12 colon
[18] = tested on: RPMI-8226 leukemia
[19] = tested on: TK-10 renal
[20] = tested on: HOP-92 NSCLC
[21] = tested on: SNB-19 CNS
[22] = tested on: SK-MEL-28 melanoma
[23] = tested on: LOX IMVI melanoma
[24] = tested on: PC-3 prostate
[25] = tested on: A498 renal
[26] = tested on: M14 melanoma
[27] = tested on: SK-OV-3 ovarian
[28] = tested on: MOLT-4 leukemia
[29] = tested on: CCRF-CEM leukemia
[30] = tested on: OVCAR-3 ovarian
[31] = tested on: OVCAR-8 ovarian
[32] = tested on: RXF 393 renal
[33] = tested on: OVCAR-4 ovarian
[34] = tested on: MCF7 breast
[35] = tested on: EKVX NSCLC
[36] = tested on: SF-539 CNS
[37] = tested on: SNB-75 CNS
[38] = tested on: 786-0 renal
[39] = tested on: SN12C renal
[40] = tested on: HL-60(TB) leukemia
[41] = tested on: DU-145 prostate
[42] = tested on: BT-549 breast
[43] = tested on: NCI/ADR-RES ovarian
[44] = tested on: HOP-62 NSCLC
[45] = tested on: HS 578T breast
[46] = tested on: COLO 205 colon
[47] = tested on: MALME-3M melanoma
[48] = tested on: MDA-MB-231 breast
[49] = tested on: NCI-H226 lung
[50] = tested on: NCI-H23 lung
[51] = tested on: MDA-MB-435
[52] = tested on: HCC-2998 colon
[53] = tested on: U251 CNS
[54] = tested on: HCT-15 colon
[55] = tested on: SK-MEL-5 melanoma
[56] = tested on: SF-268 CNS
[57] = tested on: OVCAR-5 ovarian

SMILES: CC1=C(C)C(=O)C(Nc2cccc(C(F)(F)F)c2)=C(Cl)C1=O
- GI50 [1]: 1.93 µM
- TGI [1]: 3.99 µM
- GI50 [2]: 1.94 µM
- TGI [2]: 9.11 µM
- GI50 [3]: 3.46 µM
- TGI [3]: 16.1 µM
- GI50 [4]: 1.42 µM
- TGI [4]: 3.19 µM
- GI50 [5]: 8.26 µM
- TGI [5]: 21.7 µM
- GI50 [6]: 2.61 µM
- TGI [6]: 6.72 µM
- GI50 [7]: 13.3 µM
- TGI [7]: > 100 µM
- GI50 [8]: 11.6 µM
- TGI [8]: 32.2 µM
- GI50 [9]: 1.73 µM
- TGI [9]: 3.18 µM
- GI50 [10]: 6.55 µM
- TGI [10]: 24 µM
- GI50 [11]: 7.29 µM
- TGI [11]: 51.8 µM
- GI50 [12]: 2.09 µM
- TGI [12]: 4.73 µM
- GI50 [13]: 2.4 µM
- TGI [13]: > 100 µM
- GI50 [14]: 1.46 µM
- TGI [14]: 4.18 µM
- GI50 [15]: 1.17 µM
- TGI [15]: 3.6 µM
- GI50 [16]: 2.24 µM
- TGI [16]: 5.66 µM
- GI50 [17]: 3.58 µM
- TGI [17]: 25.7 µM
- GI50 [18]: 1.32 µM
- TGI [18]: 7.32 µM
- GI50 [19]: 19 µM
- TGI [19]: 37 µM
- GI50 [20]: 1.5 µM
- TGI [20]: 3.04 µM
- GI50 [21]: 5.83 µM
- TGI [21]: 23.4 µM
- GI50 [22]: 3.36 µM
- TGI [22]: 10.8 µM
- GI50 [23]: 1.69 µM
- TGI [23]: 3.32 µM
- GI50 [24]: 2.67 µM
- TGI [24]: 12.8 µM
- GI50 [25]: 13.7 µM
- TGI [25]: 45.2 µM
- GI50 [26]: 9.96 µM
- TGI [26]: 32.7 µM
- GI50 [27]: 13 µM
- TGI [27]: 50.7 µM
- GI50 [28]: 2.22 µM
- TGI [28]: > 100 µM
- GI50 [29]: 1.93 µM
- TGI [29]: > 100 µM
- GI50 [30]: 2.31 µM
- TGI [30]: 5.58 µM
- GI50 [31]: 2.68 µM
- TGI [31]: 6.89 µM
- GI50 [32]: 1.49 µM
- TGI [32]: 2.85 µM
- GI50 [33]: 1.58 µM
- TGI [33]: 2.97 µM
- GI50 [34]: 1.71 µM
- TGI [34]: 3.79 µM
- GI50 [35]: 1.49 µM
- TGI [35]: 3.73 µM
- GI50 [36]: 2.4 µM
- TGI [36]: 6.61 µM
- GI50 [37]: 1.16 µM
- TGI [37]: 13.6 µM
- GI50 [38]: 10.6 µM
- TGI [38]: 24.3 µM
- GI50 [39]: 4.25 µM
- TGI [39]: 23.4 µM
- GI50 [40]: 2.34 µM
- TGI [40]: 6.54 µM
- GI50 [41]: 15.6 µM
- TGI [41]: 34.8 µM
- GI50 [42]: 8.56 µM
- TGI [42]: 22.2 µM
- GI50 [43]: 3.16 µM
- TGI [43]: 42.3 µM
- GI50 [44]: 11.5 µM
- TGI [44]: 27.6 µM
- GI50 [45]: 6 µM
- TGI [45]: 64.4 µM
- GI50 [46]: 13 µM
- TGI [46]: 29.3 µM
- GI50 [47]: 1.98 µM
- TGI [47]: 6.04 µM
- GI50 [48]: 1.59 µM
- TGI [48]: 3.28 µM
- GI50 [49]: 10.8 µM
- TGI [49]: 34.8 µM
- GI50 [50]: 6.87 µM
- TGI [50]: 24 µM
- GI50 [51]: 5.98 µM
- TGI [51]: 19.5 µM
- GI50 [52]: 5.88 µM
- TGI [52]: 18.4 µM
- GI50 [53]: 4.45 µM
- TGI [53]: 17.9 µM
- GI50 [54]: 2.2 µM
- TGI [54]: 5.05 µM
- GI50 [55]: 4.14 µM
- TGI [55]: 15.7 µM
- GI50 [56]: 4.99 µM
- TGI [56]: 28.6 µM
- GI50 [57]: 1.98 µM
- TGI [57]: 4.13 µM
